From US7863271B2, “2-aminobenzoxazole carboxamides as 5HT3 modulators” (Albany Molecular Research, Inc., priority 2006, dated 2011) come the findings set out here.

Counter-ions that a name gives are not always drawn.

This test addresses T1, 5-HT3 (Homo sapiens, UniProt P46098).
T1 sequence (P46098 24-478): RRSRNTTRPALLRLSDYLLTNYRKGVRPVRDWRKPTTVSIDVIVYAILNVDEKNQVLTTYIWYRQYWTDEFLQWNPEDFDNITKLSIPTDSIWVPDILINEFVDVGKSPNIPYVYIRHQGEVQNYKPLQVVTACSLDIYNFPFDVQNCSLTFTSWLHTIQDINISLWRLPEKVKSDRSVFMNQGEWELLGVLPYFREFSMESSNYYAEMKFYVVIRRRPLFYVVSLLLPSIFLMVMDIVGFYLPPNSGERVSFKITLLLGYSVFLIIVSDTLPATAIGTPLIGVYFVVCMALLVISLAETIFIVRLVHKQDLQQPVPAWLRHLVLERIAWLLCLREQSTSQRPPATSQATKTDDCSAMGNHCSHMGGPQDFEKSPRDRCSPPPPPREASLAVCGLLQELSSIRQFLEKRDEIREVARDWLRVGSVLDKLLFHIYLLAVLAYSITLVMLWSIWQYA
In words: Compound affinity for the human 5-HT3 receptor (Assay B), SPA radioligand binding with [9-methyl-3H]BRL-43694. Further details: purchased Perkin Elmer. To be noted: Assay B (method B unless otherwise annotated); read-out: 5-HT3 Ki. Here is the method:
Compound Affinity for the human 5-HT3 Receptor (Assay B)
The relative affinity of the various compounds for the human 5-HT3 receptor was measured in a radioligand binding assay, using a scintillation proximity assay (SPA) format. Test compounds were dissolved to 10 mM in 100% DMSO, then serially diluted at 10× assay concentrations in 100% DMSO in 96-well polypropylene plates and further diluted to 4× assay concentrations with the assay buffer. […] Binding reactions were set up in wells of PicoPlates-96 (Perkin Elmer) by adding consecutively 50 μL of each competing compound or buffer, SPA beads, the radioligand and 5-HT3 receptor membranes. After 60-min incubation at room temperature on a Nutator mixer, plates were centrifuged for 15 min at 1,500 rpm, followed by incubation in the dark for 30 min. Radioactivity was counted in the TopCount microplate counter (Perkin Elmer) for 5 min. […] Specific binding was determined by subtracting nonspecific binding from total binding. All experiments were performed in duplicate using ten concentrations of a competing ligand, with ondansetron included as a control in every run. IC50 values were determined from specific binding data using XLfit4.1 curve fitting software from IDBS Ltd. Ki values were then calculated from the Cheng-Prusoff equation.
As for `C[C@H]1CNCCN1c1nc2c(C(=O)NC3CC4CCCC(C3)N4C)cc(Cl)cc2o1` (stereo partly drawn) [Example 57, Endo-N-(9-methyl-9-azabicyclo[3.3.1]nonan-3-yl)-6-chloro-2-((S)-2-methylpiperazin-1-yl)benzoxazole-4-carboxamide Hydrochloride], the Ki (in general, the equilibrium dissociation constant of an inhibitor or competing ligand from its target) was 11.4 nM. In the case of `CN1CCN(c2nc3c(C(=O)N[C@H]4C[C@H]5CCC[C@@H](C4)N5C)cc(Cl)cc3o2)CC1` [Example 58, Endo-N-(9-methyl-9-azabicyclo[3.3.1]nonan-3-yl)-6-chloro-2-(4-methylpiperazin-1-yl)benzoxazole-4-carboxamide Hydrochloride] it was 11.9 nM.

`COc1ccc(Nc2nc3c(C(=O)N[C@H]4C[C@H]5CCC[C@@H](C4)N5C)cccc3o2)cc1` [Example 59, Endo-N-(9-methyl-9-azabicyclo[3.3.1]nonan-3-yl)-2-(4-methoxyphenylamino)benzoxazole-4-carboxamide Hydrochloride]: the inhibitory constant (Ki) turned out to be 7.6 nM. In the case of `CC(O)CCNc1nc2c(C(=O)N[C@H]3C[C@H]4CCC[C@@H](C3)N4C)cccc2o1` (stereo partly drawn) [Example 61, Endo-N-(9-methyl-9-azabicyclo[3.3.1]nonan-3-yl)-2-(3-hydroxybutylamino)benzoxazole-4-carboxamide Hydrochloride] it was 19.9 nM. In the case of `CC[C@H]1COCCN1c1nc2c(C(=O)NC3CC4CCCC(C3)N4C)cc(Cl)cc2o1` (stereo partly drawn) [Example 62, Endo-N-(9-Methyl-9-azabicyclo[3.3.1]nonan-3-yl)-6-chloro 2-((S-3-ethylmorpholino)benzoxazole-4-carboxamide Hydrochloride] it was 6.3 nM. As to `C[C@H]1CN(C)CCN1c1nc2c(C(=O)NC3CC4CCCC(C3)N4C)cc(Cl)cc2o1` (stereo partly drawn) [Example 63, Endo-N-(9-methyl-9-azabicyclo[3.3.1]nonan-3-yl)-6-chloro-2-((S-2,4-dimethylpiperazin-1-yl)benzoxazole-4-carboxamide Hydrochloride], the inhibition constant (Ki) was found to be 16.1 nM.

As for `COc1ccccc1Nc1nc2c(C(=O)N[C@H]3C[C@H]4CCC[C@@H](C3)N4C)cccc2o1` [Example 64, Endo-N-(9-methyl-9-azabicyclo[3.3.1]nonan-3-yl)-2-(2-methoxyphenylamino)benzoxazole-4-carboxamide Hydrochloride], the Ki is 16.2 nM. Then `CCC[C@H]1COCCN1c1nc2c(C(=O)NC3CC4CCCC(C3)N4C)cccc2o1` (stereo partly drawn) [Example 66, Endo-N-(9-Methyl-9-azabicyclo[3.3.1]nonan-3-yl)-2-((S)-3-propylmorpholino)benzoxazole-4-carboxamide Hydrochloride], with 4.1 nM.

`CC(C)C[C@H]1COCCN1c1nc2c(C(=O)NC3CC4CCCC(C3)N4C)cccc2o1` (stereo partly drawn) [Example 67, Endo-N-(9-Methyl-9-azabicyclo[3.3.1]nonan-3-yl)-2-((S)-3-isobutylmorpholino)benzoxazole-4-carboxamide Hydrochloride]: the Ki was 3.9 nM. In the case of `CN1C2CCCC1CC(NC(=O)c1cccc3oc(N4CCOC[C@@H]4C(C)(C)C)nc13)C2` (stereo partly drawn) [Example 68, Endo-N-(9-Methyl-9-azabicyclo[3.3.1]nonan-3-yl)-2-((S)-3-tert-butylmorpholino)benzoxazole-4-carboxamide Hydrochloride] it was 2 nM.

In the case of `C[C@@H]1CNC[C@@H](C)N1c1nc2c(C(=O)NC3CC4CCCC(C3)N4C)cccc2o1` (stereo partly drawn) [Example 69, Endo-N-(9-Methyl-9-azabicyclo[3.3.1]nonan-3-yl)-2-((2R,6R)-2,6-dimethylpiperazin-1-yl)benzoxazole-4-carboxamide Hydrochloride], the Ki was 32.7 nM. Then `CN1[C@@H]2CCC[C@H]1C[C@@H](NC(=O)c1cccc3oc(NC4CCCCC4)nc13)C2` [Example 70, Endo-N-(9-Methyl-9-azabicyclo[3.3.1]nonan-3-yl)-2-(cyclohexylamino)benzoxazole-4-carboxamide Hydrochloride], with 19.2 nM.
